Reference: US12310946B2, “Pharmaceutical composition for oral administration of edaravone and method of administering same” (MITSUBISHI TANABE PHARMA CORPORATION, priority 2020, dated 2025)
Like-named read-outs stand apart in the source and are kept apart here.

Key:
P-gp and BCRP = experiment: Caco-2 transcellular transport study, efflux ratio with and without P-gp and BCRP inhibitors; type: in vitro ADME; conditions: human, Caco-2
Method: (§1) Cell membrane permeability is known to be constant regardless of the concentration of the substance when no transporter is involved. The control compounds, propranolol and mannitol, are not substrates for transporters P-gp and BCRP expressed in Caco-2 cells, and thus the values of the permeability coefficient are not considered to change depending on the concentrations used in the test. Thus, further, the following study was conducted to confirm that edaravone is not a substrate for transporters P-gp and BCRP as well.
(§2) That is, Caco-2 cells were seeded on a 96-well plate, cultured at 37° C. for 10 to 11 days in a CO2 incubator, and then a transcellular transport study was conducted. Then, a […] was calculated. The efflux ratio was calculated as the ratio of the mean values of Papp calculated from three measurements.

[1] = tested on: transporters P-gp and BCRP expressed in Caco-2 cells; experiment: as above; type: in vitro ADME; conditions: Caco-2 cells
Method: as §1, §2

[2] = Clinical study #5: PK of edaravone oral formulation (formula #3) in ALS patients, oral, fasted; type: in vivo, human; conditions: for difference in the AUC between the patient group and the reference group / difference in the Cmax between the patient group and the reference group: ALS patients oral vs healthy oral; for Cmax: po, 105 mg
Method: To evaluate the pharmacokinetics of edaravone in ALS patients, a clinical study #5 shown below was conducted in ALS patients who can live daily life independently (the patient group).
The edaravone oral formulation was administered orally to the patient group in fasted conditions after a lapse of 10 hours or longer from consumption of a meal. In the patient group, ALS patients who had been already administered with an edaravone intravenous infusion formulation were orally administered with the edaravone oral formulation after a lapse of 48 hours or longer from the time of completion of the previous administration of the intravenous infusion formulation. The same edaravone oral formulation as the formula #3 in Table 1 above was used. Then, blood samples were each collected before the administration, and 5 minutes, 15 minutes, 30 minutes, 45 minutes, 1 hour, 1.5 hours, 2 hours, 4 hours, 6 hours, 8 hours, 10 hours, 12 hours, and 24 hours after the administration, and the concentrations of unchanged edaravone in plasma were measured.
The resulting PK parameters were corrected for body weight of each subject adjusted to 70 kg by a proportional calculation for each of the patient group and the reference group. In addition, the results of the PK parameters after correction of the patient group are shown as box-whisker plots of #9 (the reference group), and individual plots of #5 (the patient group) and #9 (the reference group) in FIG. 3. In FIG. 3, X represents a mean value. […] Thus, the difference in the Cmax and the difference in the AUC before weight correction between the patient group and the reference group seen in Table 9 below are considered due to the difference in body weight between the patient group and the reference group, and the difference in the Cmax and the difference in the AUC after weight correction between the patient group and the reference group observed in FIG. 3 are each considered to be within the range of error.

[3] = Clinical study #10: PK of edaravone oral formulation (formula #7, 120 mg), standard meal 30 minutes after administration vs fasted; type: in vivo, human; conditions: 120 mg oral; for Cmax / Tmax / half-life / AUC(0-t): male, human, plasma, po, 120 mg, mean; for AUC(0-t): read-out: AUC0-24h
Method: Effects of meal consumption 30 minutes after administration of the edaravone oral formulation on the pharmacokinetics of edaravone were evaluated. Specifically, a clinical study #10 described below was conducted in Japanese healthy adult male subjects. In the clinical study #10, the edaravone oral formulation of the formula #7 (edaravone content of 120 mg) in Table 11 above was used and administered orally once during the study period. […]
As a post-administration consumption group, subjects in fasted conditions after a lapse of 10 hours or longer from meal consumption were orally administered with the edaravone oral formulation, […] Blood samples were each collected before the administration, and 15 minutes, 30 minutes, 1 hour, 1.5 hours, 2 hours, 4 hours, 6 hours, 8 hours, 12 hours, and 24 hours after the administration, and the concentrations of unchanged edaravone in plasma were measured. […] was carried out after the blood sample collection 30 minutes after the administration, and a subsequent meal was not consumed until the blood sample collection 4 hours after the administration was completed.
On the other hand, as a fasted group for reference, the edaravone oral formulation was administered orally to different subjects in fasted conditions, blood samples were collected, and the concentrations of unchanged edaravone in plasma were measured in the same manner.

[4] = Adsorption of edaravone to catheter in vitro (recovery after wash-in); type: physicochemical; conditions: regardless of the material of the catheter
Method: In administration using a catheter, catheters of various materials are used in medical facilities. Thus, whether administration is feasible with a catheter of any material was investigated by evaluating adsorption properties of catheters. That is, the edaravone oral formulation (#3) was passed through a catheter, and then the percentage of edaravone collected by washing in with water was evaluated.
Specifically, the edaravone oral formulation was loaded into a syringe for catheter administration to give an edaravone amount of 105 mg, and the edaravone oral formulation was passed from the syringe to each of the catheters. Water at a predetermined temperature was then injected into the catheter to wash in the edaravone oral formulation. The edaravone oral formulation that passed through the catheter and the wash-in liquid were collected and mixed, and an amount of edaravone contained in the mixed liquid was measured. The edaravone oral formulation was washed in under any of the following conditions: with 10 ml of water three times, with 30 ml of water at 25° C. or 40° C. once, or with 50 mL of water at 25° C. or 40° C. once. Three measurements were made for each catheter, and the mean and SD of recovery % were calculated.

[5] = Solubility of edaravone in water and BCS classification; type: physicochemical
Method: Since 1 g of edaravone requires 500 mL of water to dissolve, 105 mg of edaravone is calculated to require 52.5 mL of water. […] Thus, edaravone is regarded as a BCS Class 1 drug with high solubility and high permeability. These findings led to a brief that edaravone is a compound whose pharmacokinetics are not affected by meal consumption. […] Not only the presence or absence of a meal but also the types of meal cause differences in effects on the pharmacokinetics of edaravone, and suitable administration timing depends on each type of meal.

[6] = after weight correction (70 kg)
[7] = human, plasma, 105 mg oral, fasted, ALS patients (n = 9), mean, before weight correction
[8] = standard meal 30 minutes after administration vs fasted
[9] = formula #7, 30 min before low-fat meal (n = 6)

## CC1=NN(c2ccccc2)C(=O)C1 [Edaravone, 3-methyl-1-phenyl-2-pyrazolin-5-one]
P-gp and BCRP; 10 μmol/L, no inhibitor
  efflux ratio at 10 μmol/L: 0.9
P-gp and BCRP; in presence or absence of inhibitors
  efflux ratio: ≤ 2
[1]
  substrate for P-gp and BCRP: not a substrate for P-gp and BCRP
[2]; [6]
  difference in the AUC between the patient group and the reference group: 5.8%
  difference in the Cmax between the patient group and the reference group: 9.8%
[2]; before weight correction
  difference in the AUC between the patient group and the reference group: 1.5%
  difference in the Cmax between the patient group and the reference group: 15%
[2]; human, plasma, 105 mg oral, ALS patients, corrected to 70 kg, read-out: Cmax after weight correction, mean value±standard error
  Cmax: 1610 ± 231 ng/mL
[2]; human, plasma, 105 mg oral, fasted, ALS patients (n = 9), mean, before weight correction, read-out: Cmax
  Cmax: 1900 ng/mL
[2]; human, plasma, 105 mg oral, ALS patients, corrected to 70 kg, read-out: AUC after weight correction, mean value±standard error
  AUC: 1460 ± 166 ng·h/mL
[2]; [7]
  AUC(0-inf): 1740 ng·h/mL
  Tmax: 18.6 min
[3]; [8]
  decrease in the AUC in comparison with the fasted group: about 14.5%
  decrease in the Cmax in comparison with the fasted group: about 12.6%
[3]; [9]
  Cmax: 1950 ng/mL
  Tmax: 25.2 min
  half-life: 276 min
  AUC(0-t): 1920 ng·h/mL
[3]; formula #7, fasted (n = 6)
  Cmax: 1740 ng/mL
  Tmax: 22.8 min
  half-life: 308 min
  AUC(0-t): 2240 ng·h/mL
[4]
  adsorption of edaravone on the catheters: No adsorption
[5]; 105 mg of edaravone, calculated
  water required to dissolve 105 mg of edaravone: 52.5 mL
[5]; 1 g of edaravone
  water required to dissolve 1 g of edaravone: 500 mL
[5]; Biopharmaceutics Classification System
  solubility classification: high solubility compound
[5]; for example, water, read-out: saturation solubility of edaravone with respect to a dispersion medium
  solubility: ≤ 2000 µg/mL
[5]; solubility and Caco-2 permeability
  BCS class: BCS Class 1
